Reference: US20230295235A1, “COMPOUNDS TARGETING ALPHA4-BETA7 INTEGRIN” (ZEALAND PHARMA A/S, priority 2020, published 2023)

Molecular target: T1, α4β7 integrin (MAdCAM-1 binding, α4β7-positive Th memory cells) (Homo sapiens, UniProt P13612+P26010)
T1 construct: endogenous in cells; host or cells: human whole blood
T1 sequence (P13612 34-1032): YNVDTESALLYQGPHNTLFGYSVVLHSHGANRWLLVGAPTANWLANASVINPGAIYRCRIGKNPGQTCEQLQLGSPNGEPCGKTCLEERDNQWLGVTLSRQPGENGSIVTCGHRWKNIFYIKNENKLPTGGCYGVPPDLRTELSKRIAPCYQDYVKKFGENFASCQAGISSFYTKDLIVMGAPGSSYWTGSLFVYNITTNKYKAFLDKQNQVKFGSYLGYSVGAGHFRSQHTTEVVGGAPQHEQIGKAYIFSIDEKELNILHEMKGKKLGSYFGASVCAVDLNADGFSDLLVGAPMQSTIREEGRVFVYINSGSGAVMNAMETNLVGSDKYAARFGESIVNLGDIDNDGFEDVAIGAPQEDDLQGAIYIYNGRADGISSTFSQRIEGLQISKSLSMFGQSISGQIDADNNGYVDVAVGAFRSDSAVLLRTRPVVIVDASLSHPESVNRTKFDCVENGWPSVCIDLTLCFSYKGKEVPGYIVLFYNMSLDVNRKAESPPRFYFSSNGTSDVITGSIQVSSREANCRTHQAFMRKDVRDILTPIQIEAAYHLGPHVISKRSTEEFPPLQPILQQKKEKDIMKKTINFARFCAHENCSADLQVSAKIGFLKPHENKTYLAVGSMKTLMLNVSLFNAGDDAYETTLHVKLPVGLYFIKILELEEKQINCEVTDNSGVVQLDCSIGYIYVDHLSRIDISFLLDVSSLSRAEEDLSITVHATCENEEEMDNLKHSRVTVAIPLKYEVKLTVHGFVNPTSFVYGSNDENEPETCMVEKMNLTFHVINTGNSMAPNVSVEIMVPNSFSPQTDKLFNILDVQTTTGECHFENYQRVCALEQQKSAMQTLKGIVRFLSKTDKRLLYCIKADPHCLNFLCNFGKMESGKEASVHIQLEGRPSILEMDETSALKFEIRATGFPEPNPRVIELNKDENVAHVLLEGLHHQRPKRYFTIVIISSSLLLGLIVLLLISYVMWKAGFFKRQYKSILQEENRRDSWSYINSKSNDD
T1 sequence (P26010 20-798): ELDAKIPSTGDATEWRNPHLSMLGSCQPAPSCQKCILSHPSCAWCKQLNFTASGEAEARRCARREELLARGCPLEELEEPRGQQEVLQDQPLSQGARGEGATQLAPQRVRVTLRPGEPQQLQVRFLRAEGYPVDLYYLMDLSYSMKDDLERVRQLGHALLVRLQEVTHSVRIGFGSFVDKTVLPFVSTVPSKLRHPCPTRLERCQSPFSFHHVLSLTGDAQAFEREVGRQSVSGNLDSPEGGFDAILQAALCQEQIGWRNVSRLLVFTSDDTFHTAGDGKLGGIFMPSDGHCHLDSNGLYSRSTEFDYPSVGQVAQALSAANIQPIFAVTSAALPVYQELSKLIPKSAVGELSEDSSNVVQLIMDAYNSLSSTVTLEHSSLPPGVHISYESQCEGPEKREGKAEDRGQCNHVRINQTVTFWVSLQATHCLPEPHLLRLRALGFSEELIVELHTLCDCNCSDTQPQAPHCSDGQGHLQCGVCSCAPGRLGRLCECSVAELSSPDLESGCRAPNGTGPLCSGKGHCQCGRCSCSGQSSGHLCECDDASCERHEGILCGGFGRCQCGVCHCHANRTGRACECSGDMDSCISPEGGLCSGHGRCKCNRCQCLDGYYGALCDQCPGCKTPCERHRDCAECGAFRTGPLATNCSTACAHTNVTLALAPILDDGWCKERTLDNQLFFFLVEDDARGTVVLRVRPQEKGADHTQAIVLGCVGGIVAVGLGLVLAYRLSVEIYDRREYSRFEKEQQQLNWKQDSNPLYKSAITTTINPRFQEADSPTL
Assay: Competition assay: inhibition of biotinylated rhMAdCAM-1-Fc binding to α4β7-positive Th memory cells in whole blood (FACS receptor occupancy)
Assay type: cell-based
Conditions: single donor, 4 mM MnCl2, α4β7-positive Th memory cells, read-out: IC50, inhibition of MAdCAM-1 binding to primary cells
Description: The compound of Example 1 was used in competition assay on CD4+ integrin α4+β7-|o memory T cells.
Receptor occupancy in primary cells was determined by measuring the amount of biotinylated human recombinant MAdCAM-1-Fc or human recombinant VCAM-1-Fc bound to selected cell populations using flow cytometry. Human recombinant MAdCAM-1-Fc or human recombinant VCAM-1-Fc (R&D systems) were biotinylated using commercially available reagents and protocol (Pierce).
Whole blood was collected from human donors in sodium heparin tubes. A volume of 100 µL of blood was incubated with the compound of Example 1 and 4 mM MnCl2 for 1 hour at room temperature. Cells were washed twice with 1 mL of 1X Dulbecco’s phosphate buffered saline (DPBS) calcium magnesium free (CMF) (ThermoFisher Scientific) and resuspended in 100 µL of DPBS CMF. […]
Fluorescence-activated cell sorting (FACS) data was acquired by electronic gating on the basis of forward versus side scatter. […] Cell population were determined using the following markers: CD45+, CD3+, CD4+,CD45RO+, CD49d+, integrin β7, biotinylated ligands.
Compound receptor occupancy was defined as the decrease in the number of integrin β7+ or integrin β7-lo cells binding biotinylated rhMAdCAM-1 or rhVCAM-1, respectively. Receptor occupancy was calculated with the following equation: […]

CC(C)C[C@@H]1NC(=O)c2ccc(-c3ccc(N4CCN(C(=O)c5ccccc5-c5ccccc5C(=O)N5CCN(c6ccc(-c7ccc8cc7CNC(=O)[C@@H]7CCCN7[C@H](C(=O)NC(C)(C)C)[C@H](C)NC(=O)[C@H]([C@@H](C)O)NC(=O)[C@H](CC(=O)O)NC(=O)[C@H](CC(C)C)NC8=O)cc6)CC5)CC4)cc3)c(c2)CNC(=O)[C@@H]2CCCN2[C@H](C(=O)NC(C)(C)C)[C@H](C)NC(=O)[C@H]([C@@H](C)O)NC(=O)[C@H](CC(=O)O)NC1=O [Example 1, 2,2′-((S,S,S,S,S,S,1^2,8S,11S,14S,17S,18S)-((([1,1′-Biphenyl]-2,2′-Dicarbonyl)-Bis(Piperazine-4,1-Diyl))Bis(4,1-Phenylene))Bis(18-(Tert-Butylcarbamoyl)-14-((R)-1-Hydroxyethyl)-8-Isobutyl-17-Methyl-2,6,9,12,15-Pentaoxo-3,7,10,13,16-Pentaaza-1(2,1)-Pyrrolidina-5(1,3)-Benzenacyclooctadecaphane-5^6,11-Diyl))-Diacetic Acid]
IC50: ~87 nM
